Measurements as given in paper PMC11157491, “Novel Alaninamide Derivatives with Drug-like Potential for Development as Antiseizure and Antinociceptive Therapies—In Vitro and In Vivo Characterization” (ACS Chemical Neuroscience, 2024).
Like-named read-outs stand apart in the source and are kept apart here.

Tests used:
mature BDNF (mBDNF) = assay: mBDNF and proNGF expression in hippocampus and cortex of PTZ-kindled mice (western blot); type: in vivo; conditions: PTZ-kindled animals, prolonged treatment
Protocol: In addition, we determined the expression of the nerve growth factor (NGF), which can also be implicated in kindling progression, by enhancing mossy fiber sprouting.[40] However, no changes in the NGF protein expression in the hippocampus and cortex of kindled animals were found (Figure 5C,D).
The expression of mBDNF and proNGF in the mouse hippocampus and cortex was evaluated by the western blot technique. Half of mouse brain structures, cortex and hippocampus, were weighted and homogenized at the ratio of 9 μL/mg in 2% sodium dodecyl sulfate (SDS) supplemented with a cocktail of protease (Thermo Scientific) and phosphatese inhibitors (Sigma-Aldrich) using a bead homogenizer (Bead Ruptor Elite, Omni International). Then, the samples were denatured at 95 °C for 10 min and centrifuged at 10,000g for 10 min at 4 °C. The total protein concentration in the obtained supernatants was determined using a PierceTM BCA Protein Assay Kit (Thermo Scientific, Waltham, MA). After setting the proper protein concentration, the samples were mixed with loading buffer (containing 10% 2-mercaptoethanol) at a ratio of 3:1 and heated for 10 min at 95 °C. Equal amounts of the protein (45 μg/lane) were loaded on Any kD precast polyacrylamide gels (Criterion, TGX Stain-Free gel, Bio-Rad, Hercules, CA) and subjected to electrophoresis (170 V, 60 min). Separated proteins were transferred to the polyvinylidene difluoride (PVDF) membrane (Bio-Rad, Hercules, CA) and were blocked in a 5% solution of albumin in TBST. […] The proteins were detected using the electrochemiluminescence (ECL) method (Western Bright Quantum, Advansta Inc., San Jose, CA). The chemiluminescence of the membranes was imaged with the G-Box Imaging System (Syngene, Frederick, MD), and the protein expression was analyzed with Gene Tools software (Syngene, Frederick, MD) and expressed as relative to the total protein content in the membrane lane.
Changes in the relative expression of tested proteins were analyzed using one-way ANOVA with Tukey’s post hoc test.

mice [1] = assay: Formalin test; type: in vivo; conditions: Mus musculus, ip, 30 min before test
Source text: One of the most useful screening methods for testing clinically relevant molecules is the formalin model. The local injection of formalin solution induces two distinct phases of the nociceptive response, which are associated with immediate activation of nociceptors (phase I) and sensitization of spinal reflex circuits (phase II).[41] It is important to note that during the second phase, there is also an inflammatory response to tissue damage. […] Thus, this model has been successfully used to assess the analgesic efficacy of a variety of compounds, including ASMs.[42]
The experimental groups consisted of 10 adult male Albino Swiss mice (CD-1, 18–25 g). Each animal was tested only once. Immediately after the assay, the animals were sacrificed by cervical dislocation. Behavioral measurements were observed by trained observers. […] The in vivo procedure for the model of capsaicin-induced nociception was previously reported;[67] the animals were pretreated with vehicle (10 mL/kg, negative control), and the dose–response of investigated compounds was evaluated at 12.5, 25, and 50 mg/kg.
Data are presented as means ± standard error of the mean (SEM). […] Statistically significant differences between groups were calculated using one-way analysis of variance (ANOVA) and the post hoc Dunnett’s multiple comparison test or two-way analysis of variance (ANOVA). […]

mice [2] = assay: Streptozotocin (STZ)-induced peripheral neuropathy, von Frey test; type: in vivo; conditions: 21 days after STZ
Protocol: In the first group, the initial value of 6.08 ± 0.29 (baseline) decreased to the value of 4.30 ± 0.21 (70.7% of the baseline). […] In the second group, the initial value of 6.08 ± 0.29 (baseline) decreased to the value of 5.02 ± 0.27 (82.6% of the baseline). The administration of 28 at a dose of 25 mg/kg elevated the pain threshold to the value of 7.69 ± 0.41, which corresponds with 126.5% of the baseline. In the third group, the baseline was decreased to the value of 5.35 ± 0.27 (88.0% of the baseline). The effect was not statistically significant. The administration of 28 at a dose of 50 mg/kg elevated the pain threshold to a value as high as 8.70 ± 0.41, which corresponds with 143.1% of the baseline.
The experimental groups consisted of 10 adult male Albino Swiss mice (CD-1, 18–25 g). Each animal was tested only once. Immediately after the assay, the animals were sacrificed by cervical dislocation. Behavioral measurements were observed by trained observers. The in vivo antinociceptive assays were in accordance with Polish regulations and the European Union Directive of 22 Sept 2010 (2010/63/EU). All procedures were carried out according to the rules of the International Council on Laboratory Animal Science (ICLAS) and were approved by the Local Ethics Committee in Cracow, Poland (104/2015, 279/2019, and 614/2022). The tested substances were suspended in a 1% aqueous solution of Tween 80 and were injected i.p. 30 min prior to the test. Control group animals (negative control) were administered with an appropriate amount of vehicle (Tween 80, 1% aqueous solution, i.p.) 30 min prior to the test. […] Before formalin application, different groups of animals were injected i.p. with vehicle (10 mL/kg, negative control). The in vivo procedure for the model of capsaicin-induced nociception was previously reported;[67] the animals were pretreated with vehicle (10 mL/kg, negative control), and the dose–response of investigated compounds was evaluated at 12.5, 25, and 50 mg/kg.
Data are presented as means ± standard error of the mean (SEM). GraphPad Prism Software (v.5) was used to analyze the vast majority of data. Statistically significant differences between groups were calculated using one-way analysis of variance (ANOVA) and the post hoc Dunnett’s multiple comparison test or two-way analysis of variance (ANOVA). The criterion for significance was set at p < 0.05. The log-probit method was applied to statistically determine the ED50 values with 95% confidence limits.

GABAA transporter = assay: GABA transporter binding (antagonist radioligand); conditions: 100 μM, rat cerebral cortex
Protocol: (§1) Binding/functional studies were carried out commercially in Eurofins Laboratories (Poitiers, France) and Eurofins Panlabs Discovery Services Taiwan, Ltd. (New Taipei City, Taiwan) using testing procedures that were reported previously (for details, see Table S2).
(§2) Table S2. Radioligand binding and functional assays. […]
GABA transporter (antagonist radioligand) […]
(§3) Potassium channel (hERG) […]
(§4) Assays were performed commercially in Eurofins Laboratories ( Poitiers, France) or Eurofins Panlabs Discovery Services
(§5) Taiwan, Ltd. (New Taipei City, Taiwan).

hERG potassium channel = molecular target: T1, hERG potassium channel (Homo sapiens, UniProt Q12809); assay: hERG potassium channel binding; conditions: HEK-293 cells expressing human recombinant hERG, human recombinant HEK-293 cell, read-out: % inhibition of control specific binding
T1 construct: Eurofins (contract assay)
Source text: Moreover, we also evaluated its influence on the potassium channel (hERG), which is known to be one of the most critical “off-targets” responsible for the harmful proarrhythmic activity of drugs and drug candidates.[56] […] The latter result is particularly important, since it minimizes the risk of potential proarrhythmic activity of 28. Despite this positive result, more detailed off-target profiling is undoubtedly necessary in the next steps of preclinical development.
as §1, §2, §3, §4, §5

T1 sequence (Q12809 whole entry): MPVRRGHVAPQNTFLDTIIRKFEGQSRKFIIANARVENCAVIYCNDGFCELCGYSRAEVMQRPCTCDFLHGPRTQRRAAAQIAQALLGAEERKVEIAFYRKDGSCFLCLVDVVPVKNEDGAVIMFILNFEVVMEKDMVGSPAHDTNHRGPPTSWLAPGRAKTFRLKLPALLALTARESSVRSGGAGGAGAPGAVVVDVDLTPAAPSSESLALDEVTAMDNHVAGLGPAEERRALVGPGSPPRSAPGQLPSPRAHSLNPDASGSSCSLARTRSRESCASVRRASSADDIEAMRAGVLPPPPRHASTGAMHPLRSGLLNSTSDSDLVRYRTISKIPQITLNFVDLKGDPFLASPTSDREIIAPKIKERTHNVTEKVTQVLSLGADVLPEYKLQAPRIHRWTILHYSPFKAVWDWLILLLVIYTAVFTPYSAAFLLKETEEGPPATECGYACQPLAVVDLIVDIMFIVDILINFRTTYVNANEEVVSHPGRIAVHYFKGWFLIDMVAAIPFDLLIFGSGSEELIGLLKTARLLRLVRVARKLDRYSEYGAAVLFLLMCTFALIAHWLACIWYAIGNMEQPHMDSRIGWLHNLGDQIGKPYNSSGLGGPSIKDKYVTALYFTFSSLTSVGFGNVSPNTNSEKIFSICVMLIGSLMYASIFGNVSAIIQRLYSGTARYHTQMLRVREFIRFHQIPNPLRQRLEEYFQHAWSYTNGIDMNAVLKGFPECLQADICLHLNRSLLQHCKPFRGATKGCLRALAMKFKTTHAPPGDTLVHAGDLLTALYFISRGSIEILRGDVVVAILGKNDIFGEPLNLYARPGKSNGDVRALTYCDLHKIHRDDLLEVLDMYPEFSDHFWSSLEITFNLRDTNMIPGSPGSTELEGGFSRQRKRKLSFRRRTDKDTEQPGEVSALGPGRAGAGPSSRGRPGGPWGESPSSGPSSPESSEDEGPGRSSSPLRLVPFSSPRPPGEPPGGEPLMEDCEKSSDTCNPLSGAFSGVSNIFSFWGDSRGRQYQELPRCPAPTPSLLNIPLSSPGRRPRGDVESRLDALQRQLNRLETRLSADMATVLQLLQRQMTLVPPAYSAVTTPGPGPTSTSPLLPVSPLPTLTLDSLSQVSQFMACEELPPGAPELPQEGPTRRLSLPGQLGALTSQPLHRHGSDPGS

CC(=O)NC(C)C(=O)N1CCN(c2cccc(OC(F)(F)F)c2)CC1 (centres unmarked) [Compound 28, N-(1-oxo-1-(4-(3-(Trifluoromethoxy)phenyl)piperazin-1-yl)propan-2-yl)acetamide]
mBDNF expression in the cortex (mature BDNF (mBDNF)): decreased the expression of mBDNF | mBDNF expression in the hippocampus (mature BDNF (mBDNF)): not in the hippocampus | ED50 (mice [1]; read-out: ED50 formalin test phase I (acute phase)): 34.3 mg/kg | ED50 (mice [1]; read-out: ED50 formalin test phase II (late phase)): 22 mg/kg | pain threshold after compound, % of the baseline (mice [2]; 12.5 mg/kg): 100.0% | pain threshold (von Frey) after compound (mice [2]; 25 mg/kg): 7.69 ± 0.41 | pain threshold after compound, % of the baseline (mice [2]; 25 mg/kg): 126.5% | pain threshold (von Frey) after compound (mice [2]; 50 mg/kg): 8.70 ± 0.41 | pain threshold after compound, % of the baseline (mice [2]; 50 mg/kg): 143.1% | % inhibition of control specific binding (GABAA transporter): 15.0% | inhibition at 100 µM (hERG potassium channel): 12.9%
